According to ChEMBL document CHEMBL4145469, “Part II: New candidates of pyrazole-benzimidazole conjugates as checkpoint kinase 2 (Chk2) inhibitors” (Eur J Med Chem, 2018):

Assay: Toxicity in Sprague-Dawley rat assessed as mortality administered as po single dose measured up to 1 month post dose
Assay type: organism-based
Conditions: in vivo

Cc1nn(-c2ccccc2)c(Oc2ccc(-c3nc4cc([N+](=O)[O-])ccc4[nH]3)cc2)c1/C=N/NC(N)=O
LD50 at 1 month: 500 mg/kg
